Molecules are shown by their SMILES.

Chain of α5β1 integrin (P08648 42-894 limits assumed): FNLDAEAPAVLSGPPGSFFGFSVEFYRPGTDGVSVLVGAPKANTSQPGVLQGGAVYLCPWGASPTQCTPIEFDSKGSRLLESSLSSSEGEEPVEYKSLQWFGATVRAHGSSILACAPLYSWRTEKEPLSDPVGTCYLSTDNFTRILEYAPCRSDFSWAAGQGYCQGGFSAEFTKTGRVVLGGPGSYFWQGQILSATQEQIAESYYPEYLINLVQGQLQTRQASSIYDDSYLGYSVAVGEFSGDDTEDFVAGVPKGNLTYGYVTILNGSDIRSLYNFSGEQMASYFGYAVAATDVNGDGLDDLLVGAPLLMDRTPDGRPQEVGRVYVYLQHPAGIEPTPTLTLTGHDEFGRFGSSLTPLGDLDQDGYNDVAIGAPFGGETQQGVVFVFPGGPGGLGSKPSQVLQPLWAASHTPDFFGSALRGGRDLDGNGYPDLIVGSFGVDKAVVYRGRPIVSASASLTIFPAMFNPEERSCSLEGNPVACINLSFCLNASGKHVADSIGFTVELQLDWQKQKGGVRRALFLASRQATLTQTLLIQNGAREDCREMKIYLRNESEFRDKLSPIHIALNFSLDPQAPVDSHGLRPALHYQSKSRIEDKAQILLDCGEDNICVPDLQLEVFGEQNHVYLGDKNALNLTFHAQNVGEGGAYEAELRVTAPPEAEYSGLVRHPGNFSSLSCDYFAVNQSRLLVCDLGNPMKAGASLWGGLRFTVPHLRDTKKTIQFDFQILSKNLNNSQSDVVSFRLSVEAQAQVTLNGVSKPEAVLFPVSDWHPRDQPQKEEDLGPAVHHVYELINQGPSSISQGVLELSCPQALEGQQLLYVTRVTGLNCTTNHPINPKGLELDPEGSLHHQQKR
Chain of α5β1 integrin (P08648 895-1049 partner limits assumed): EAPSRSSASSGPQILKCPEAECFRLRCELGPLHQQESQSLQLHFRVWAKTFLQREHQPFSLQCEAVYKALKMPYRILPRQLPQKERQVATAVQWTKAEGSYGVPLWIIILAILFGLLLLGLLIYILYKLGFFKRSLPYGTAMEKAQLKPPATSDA
Chain of α5β1 integrin (P05556 21-798): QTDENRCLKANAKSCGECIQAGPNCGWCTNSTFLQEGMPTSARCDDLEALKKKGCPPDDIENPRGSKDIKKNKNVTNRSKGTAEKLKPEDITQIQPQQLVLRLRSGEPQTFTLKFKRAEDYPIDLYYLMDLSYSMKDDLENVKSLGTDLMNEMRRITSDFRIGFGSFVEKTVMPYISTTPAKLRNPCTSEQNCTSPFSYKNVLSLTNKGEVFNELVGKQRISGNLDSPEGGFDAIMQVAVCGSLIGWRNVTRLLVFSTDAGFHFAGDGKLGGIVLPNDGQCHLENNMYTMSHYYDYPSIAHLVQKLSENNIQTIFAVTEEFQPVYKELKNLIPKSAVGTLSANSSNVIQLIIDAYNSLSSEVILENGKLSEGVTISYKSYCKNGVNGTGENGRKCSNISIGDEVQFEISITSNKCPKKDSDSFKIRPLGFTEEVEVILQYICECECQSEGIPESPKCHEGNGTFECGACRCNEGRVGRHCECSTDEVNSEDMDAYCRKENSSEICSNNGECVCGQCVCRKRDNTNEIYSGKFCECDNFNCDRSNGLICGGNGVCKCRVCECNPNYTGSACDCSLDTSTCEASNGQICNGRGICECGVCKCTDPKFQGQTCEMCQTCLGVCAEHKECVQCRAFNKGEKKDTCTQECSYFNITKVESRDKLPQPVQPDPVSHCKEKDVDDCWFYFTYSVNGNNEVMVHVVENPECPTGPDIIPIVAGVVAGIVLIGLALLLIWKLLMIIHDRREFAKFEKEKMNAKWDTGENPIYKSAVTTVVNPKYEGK

This experiment addresses α5β1 integrin (Homo sapiens, UniProt P05556+P08648). In words: In vitro binding assay (a): inhibition of binding of α5β1 integrin to fibronectin fragment Fn9-10 (Origen electrochemiluminescence). Conditions: recombinant human α5β1 vs Fn9-10 ligand; geometric mean where tested more than once. The source says:
(a) In Vitro Binding Assay
The assay determined the ability of compounds to inhibit binding of α5β1 integrin to a cognate ligand, a fragment of human fibronectin. The assay used Origen technology (IGEN International) to measure the compound activity. Briefly, α5β1 integrin was coated onto epoxy-paramagnetic beads (Dynal Biotech UK, Bromborough, Wirral, CH62 3QL, UK, Catalogue No 140.11) and biotinylated-fibronectin ligand was coupled to strepatividin labeled Tag-NHS-Ester (BioVeris Corporation, Witney, Oxfordshire, OX28 4GE, UK, Catalogue No 110034). The ruthenium-labeled tag emits an electrochemiluminescence signal upon stimulation which is detected by the Origen reader. Thus, interaction of integrin and ligand causes association of bead and tag, and the resulting electrochemiluminescence signal reflects the level of integrin interaction with fibronectin.
20 μg of recombinant human α5β1 was coated onto 4×10(7) epoxy-paramagnetic beads according to manufacturers instructions at 4° C. for 24 hours. Integrin coating and corresponding activity was subsequently measured for each batch but typically, 25 ng of coated protein was used per assay well.
A DNA fragment encoding the domains 9-10 (amino-acids 1325-1509) of human fibronectin (Swiss-Prot Accession No. P02751) was isolated from cDNA libraries using standard molecular biology and PCR cloning techniques. The cDNA fragment was sub-cloned into a pT73.3 expression vector containing a GST-epitope tag (developed at AstraZeneca; Bagnall et al., Protein Expression and Purification, 2003, 27: 1-11). Following expression in E. coli, the expressed protein, termed Fn9-10, was purified using the GST-tag using standard purification techniques. The recombinant Fn9-10 was subsequently biotinylated using a EZ-link Sulfo-NHS-LC-Biotinylation kit (Perbio Science UK Ltd., Cramlington, Northumberland, NE23 1WA, UK, Catalogue No. 21335) and made to give a final concentration of approximately 1 mg/ml. Tag-NHS-Ester was labeled with streptavidin by incubation at room temperature following manufacturers instructions and buffer-exchanged into PBS to give a concentration of 0.5 mg/ ml. Immediately prior to the assay, biotinylated-Fn9-10 and Streptavidin-labeled Tag were diluted in Assay Buffer to give a final concentrations of 0.6 ug/ml and 1.5 ug/ml respectively. The Fn9-10 and Tag solutions were then mixed together in equal volumes and incubated on ice for at least 30 minutes prior to the assay.
Test compounds were prepared as 10 mM stock solutions in DMSO (Sigma-Aldrich Company Ltd, Gillingham, Dorset SP8 4XT Catalogue No. 154938) and serially diluted with 4% DMSO to give a range of test concentrations at ×4 required final concentration. Aliquots (20 μl) of each compound dilution were placed into each well of a 384-well round bottomed polypropylene plate (Matrix Technologies, Wilmslow, Cheshire, SK9 3LP, Catalogue No. 4340 384). Each plate also contained control wells: maximum signal was created using wells containing 20 μl of 4% DMSO, and minimum signal corresponding to no binding was created using wells containing 20 μl of 80 mM EDTA (Sigma Catalogue No. E7889).
For the assay, 25 ng(20 ul) of a5b1-bead suspension and 40 μl of the Fn9-10/Tag pre-incubated solution were added to each well containing 20 μl of compound or control solution. Assay plates were then incubated at room temperature for a minimum of 6 hours before being analysed on an Origen plate reader. The minimum value was subtracted from all values, and the signal was plotted against compound concentration to generate IC50 data.
The data in the above table was generated in an assay substantially as described above in relation to Binding Assay (a). Some of the compounds shown in the table were tested more than once in the assay. For those compounds the IC50 value shown is the geometric mean of the measured IC50 values. […]
On to `CNc1cccc(CCOc2ccc(C[C@H](NC(=O)C3CCCN3C)C(=O)O)cc2)n1` (stereo partly drawn) [Example 3, N-[(1-methylpyrrolidin-2-yl)carbonyl]-O-{2-[6-(methylamino)pyridin-2-yl]ethyl}-L-tyrosine], for which the IC50 (usually the concentration that inhibits the measured activity by half) worked out at 0.107 µM.

On to `CNc1cccc(CCOc2ccc(C[C@H](NC(=O)C3CCCN3C(C)C)C(=O)O)cc2)n1` (stereo partly drawn) [Example 4, N-[(1-isopropylpyrrolidin-2-yl)carbonyl]-O-{2-[6-(methylamino)pyridin-2-yl]ethyl}-L-tyrosine], for which the IC50 is 0.061 µM.

For `CC1(C(=O)N[C@@H](Cc2ccc(OCCc3ccc4c(n3)NCCO4)cc2)C(=O)O)CCCCC1` [Example 5.1, O-[2-(3,4-dihydro-2H-pyrido[3,2-b][1,4]oxazin-6-yl)ethyl]-N-[(1-methylcyclohexyl)carbonyl]-L-tyrosine], the IC50 worked out at 0.011 µM.

In the case of `CC(C)(C(=O)N[C@@H](Cc1ccc(OCCc2ccc3c(n2)NCCO3)cc1)C(=O)O)C(=O)N1CCCC1` [Example 5.2, O-[2-(3,4-dihydro-2H-pyrido[3,2-b][1,4]oxazin-6-yl)ethyl]-N-(2,2-dimethyl-3-oxo-3-pyrrolidin-1-ylpropanoyl)-L-tyrosine], the IC50 was found to be 0.004 µM.

For the molecule `COC1(C(=O)N[C@@H](Cc2ccc(OCCc3ccc4c(n3)NCCO4)cc2)C(=O)O)CCOCC1` [Example 5.3, O-[2-(3,4-dihydro-2H-pyrido[3,2-b][1,4]oxazin-6-yl)ethyl]-N-[(4-methoxytetrahydro-2H-pyran-4-yl)carbonyl]-L-tyrosine], the half-inhibitory concentration (IC50) worked out at 0.005 µM.

The values above are taken from patent US20080182842A1, “L-alanine derivatives as a5beta1 antagonists” (ASTRAZENECA AB, priority 2007, published 2008).
